# Tests used:
# Format in all cases: cell-based
# A549 = assay: Cancer cell panel, cell viability (resazurin): NSCLC, A549; conditions: 72 hours, labelled drug combined with Example 3
# Description: (§1) Cells were plated in 96-well plates and treated for 72 hours with a serially diluted CK2 inhibitor or anti-cancer drug or their combination. The suspension cell lines were treated right after plating, while the adherent cells were allowed to attach overnight prior to the start of the treatment.
# (§2) Cell viability was determined by adding resazurin to cell cultures and measuring fluorescence with a plate reader. Relative cell viability was calculated by dividing the cell viability signal from a test sample by that of a non-treated control. […] Bliss Independence and Highest Single Agent models were used to determine if there is synergy, additivity or antagonism between the CK2 inhibitor and an anti-cancer drug.
# OVCAR-3 = assay: Cancer cell panel, cell viability (resazurin): Ovarian, OVCAR-3; conditions: OVCAR-3 (Ovarian), 72 hours; labelled drug combined with Example 3
# SK-MEL-3 = assay: Cancer cell panel, cell viability (resazurin): Melanoma, SK-MEL-3; conditions: SK-MEL-3 (Melanoma), 72 hours; labelled drug combined with Example 3
# Description: as §1, §2
# HL60 = assay: Cancer cell panel, cell viability (resazurin): Leukemia, HL60; conditions: 72 hours, labelled drug combined with Example 3
# Caov-3 = assay: Cancer cell panel, cell viability (resazurin): Ovarian, Caov-3; conditions: Caov-3 (Ovarian), 72 hours; labelled drug combined with Example 3
# HCT116 = assay: Cancer cell panel, cell viability (resazurin): Colon, HCT116; conditions: 72 hours, labelled drug combined with Example 3
# Description: as §1, §2
# WM-115 = assay: Cancer cell panel, cell viability (resazurin): Melanoma, WM-115; conditions: WM-115 (Melanoma), 72 hours; labelled drug combined with Example 3
# K562 = assay: Cancer cell panel, cell viability (resazurin): Leukemia, K562; conditions: 72 hours, labelled drug combined with Example 3
# Description: as §1, §2
# ZR-75-1 = assay: Cancer cell panel, cell viability (resazurin): Breast, ZR-75-1; conditions: ZR-75-1 (Breast), 72 hours; labelled drug combined with Example 3
# DLD-1 = assay: Cancer cell panel, cell viability (resazurin): Colon, DLD-1; conditions: DLD-1 (Colon), 72 hours; labelled drug combined with Example 3
# Description: as §1, §2
# SkBr-3 = assay: Cancer cell panel, cell viability (resazurin): Breast, SkBr-3; conditions: SkBr-3 (Breast), 72 hours; labelled drug combined with Example 3
# EOL-1 = assay: Cancer cell panel, cell viability (resazurin): Leukemia, EOL-1; conditions: EOL-1 (Leukemia), 72 hours; labelled drug combined with Example 3
# Description: as §1, §2
# MDA-MB-157 = assay: Cancer cell panel, cell viability (resazurin): Breast, MDA-MB-157; conditions: MDA-MB-157 (Breast), 72 hours; labelled drug combined with Example 3
# MDA-MB-231 = assay: Cancer cell panel, cell viability (resazurin): Breast, MDA-MB-231; conditions: MDA-MB-231 (Breast), 72 hours; labelled drug combined with Example 3
# T47D = assay: Cancer cell panel, cell viability (resazurin): Breast, T47D; conditions: 72 hours, labelled drug combined with Example 3
# Description: as §1, §2
# H23 = assay: Cancer cell panel, cell viability (resazurin): NSCLC, H23; conditions: 72 hours, labelled drug combined with Example 3
# H1975 = assay: Cancer cell panel, cell viability (resazurin): NSCLC, H1975; conditions: 72 hours, labelled drug combined with Example 3
# Raji = assay: Cancer cell panel, cell viability (resazurin): Burkitt's Lymphoma, Raji; conditions: 72 hours, labelled drug combined with Example 3
# H460 = assay: Cancer cell panel, cell viability (resazurin): NSCLC, H460; conditions: 72 hours, labelled drug combined with Example 3
# BxPC3 = assay: Cancer cell panel, cell viability (resazurin): Pancreatic, BxPC3; conditions: 72 hours, labelled drug combined with Example 3
# Description: as §1, §2
# Daudi = assay: Cancer cell panel, cell viability (resazurin): Burkitt's Lymphoma, Daudi; conditions: 72 hours, labelled drug combined with Example 3
# Description: as §1, §2
# BT-474 = assay: Cancer cell panel, cell viability (resazurin): Breast, BT-474; conditions: BT-474 (Breast), 72 hours; labelled drug combined with Example 3
# RPMI8226 = assay: Cancer cell panel, cell viability (resazurin): multiple myeloma, RPMI8226; conditions: 72 hours, labelled drug combined with Example 3
# H1299 = assay: Cancer cell panel, cell viability (resazurin): NSCLC, H1299; conditions: 72 hours, labelled drug combined with Example 3
# Description: as §1, §2
# LoVo = assay: Cancer cell panel, cell viability (resazurin): Colon, LoVo; conditions: 72 hours, labelled drug combined with Example 3
# Colo205 = assay: Cancer cell panel, cell viability (resazurin): Colon, Colo205; conditions: 72 hours, labelled drug combined with Example 3
# Description: as §1, §2
# HT29 = assay: Cancer cell panel, cell viability (resazurin): Colon, HT29; conditions: 72 hours, labelled drug combined with Example 3
# Description: as §1, §2
# A375 = assay: Cancer cell panel, cell viability (resazurin): Melanoma, A375; conditions: 72 hours, labelled drug combined with Example 3
# SKOV-3 = assay: Cancer cell panel, cell viability (resazurin): Ovarian, SKOV-3; conditions: SKOV-3 (Ovarian), 72 hours; labelled drug combined with Example 3
# SK-MEL-24 = assay: Cancer cell panel, cell viability (resazurin): Melanoma, SK-MEL-24; conditions: SK-MEL-24 (Melanoma), 72 hours; labelled drug combined with Example 3
# MDA-MB-453 = assay: Cancer cell panel, cell viability (resazurin): Breast, MDA-MB-453; conditions: MDA-MB-453 (Breast), 72 hours; labelled drug combined with Example 3
# H2122 = assay: Cancer cell panel, cell viability (resazurin): NSCLC, H2122; conditions: 72 hours, labelled drug combined with Example 3
# Description: as §1, §2
# BT-20 = assay: Cancer cell panel, cell viability (resazurin): Breast, BT-20; conditions: BT-20 (Breast), 72 hours; labelled drug combined with Example 3
compound,measurement,setting,value
"CC(=O)O[C@H]1C(=O)[C@@]2(C)[C@H]([C@H](OC(=O)c3ccccc3)[C@]3(O)C[C@H](OC(=O)[C@H](O)[C@@H](NC(=O)c4ccccc4)c4ccccc4)C(C)=C1C3(C)C)[C@]1(OC(C)=O)CO[C@@H]1C[C@@H]2O [Paclitaxel, paclitaxel]","synergy, additivity or antagonism of the combination of Example 3 with the anti-cancer drug",A549,+ (Additive relative to each agent alone (CI = 0.9-1 by Bliss Independence Model and <0.9 by Highest Single Agent Model))
same,"synergy, additivity or antagonism of the combination of Example 3 with the anti-cancer drug",OVCAR-3,+ (Additive relative to each agent alone (CI = 0.9-1 by Bliss Independence Model and <0.9 by Highest Single Agent Model))
same,"synergy, additivity or antagonism of the combination of Example 3 with the anti-cancer drug",SK-MEL-3,+ (Additive relative to each agent alone (CI = 0.9-1 by Bliss Independence Model and <0.9 by Highest Single Agent Model))
same,"synergy, additivity or antagonism of the combination of Example 3 with the anti-cancer drug",HL60,+ + (Slight synergy relative to each agent alone (CI = 0.75-0.9 by Bliss Independence Model))
same,"synergy, additivity or antagonism of the combination of Example 3 with the anti-cancer drug",Caov-3,+ (Additive relative to each agent alone (CI = 0.9-1 by Bliss Independence Model and <0.9 by Highest Single Agent Model))
same,"synergy, additivity or antagonism of the combination of Example 3 with the anti-cancer drug",HCT116,+ (Additive relative to each agent alone (CI = 0.9-1 by Bliss Independence Model and <0.9 by Highest Single Agent Model))
same,"synergy, additivity or antagonism of the combination of Example 3 with the anti-cancer drug",WM-115,+ (Additive relative to each agent alone (CI = 0.9-1 by Bliss Independence Model and <0.9 by Highest Single Agent Model))
same,"synergy, additivity or antagonism of the combination of Example 3 with the anti-cancer drug",K562,+ (Additive relative to each agent alone (CI = 0.9-1 by Bliss Independence Model and <0.9 by Highest Single Agent Model))
same,"synergy, additivity or antagonism of the combination of Example 3 with the anti-cancer drug",ZR-75-1,+ (Additive relative to each agent alone (CI = 0.9-1 by Bliss Independence Model and <0.9 by Highest Single Agent Model))
same,"synergy, additivity or antagonism of the combination of Example 3 with the anti-cancer drug",DLD-1,+ + + (Synergy relative to each agent alone (CI = 0.4-0.74 by Bliss Independence Model))
same,"synergy, additivity or antagonism of the combination of Example 3 with the anti-cancer drug",SkBr-3,+ (Additive relative to each agent alone (CI = 0.9-1 by Bliss Independence Model and <0.9 by Highest Single Agent Model))
same,"synergy, additivity or antagonism of the combination of Example 3 with the anti-cancer drug",EOL-1,+ (Additive relative to each agent alone (CI = 0.9-1 by Bliss Independence Model and <0.9 by Highest Single Agent Model))
same,"synergy, additivity or antagonism of the combination of Example 3 with the anti-cancer drug",MDA-MB-157,+ (Additive relative to each agent alone (CI = 0.9-1 by Bliss Independence Model and <0.9 by Highest Single Agent Model))
same,"synergy, additivity or antagonism of the combination of Example 3 with the anti-cancer drug",MDA-MB-231,+ (Additive relative to each agent alone (CI = 0.9-1 by Bliss Independence Model and <0.9 by Highest Single Agent Model))
same,"synergy, additivity or antagonism of the combination of Example 3 with the anti-cancer drug",T47D,+ (Additive relative to each agent alone (CI = 0.9-1 by Bliss Independence Model and <0.9 by Highest Single Agent Model))
same,"synergy, additivity or antagonism of the combination of Example 3 with the anti-cancer drug",H23,+ + (Slight synergy relative to each agent alone (CI = 0.75-0.9 by Bliss Independence Model))
same,"synergy, additivity or antagonism of the combination of Example 3 with the anti-cancer drug",H1975,+ (Additive relative to each agent alone (CI = 0.9-1 by Bliss Independence Model and <0.9 by Highest Single Agent Model))
same,"synergy, additivity or antagonism of the combination of Example 3 with the anti-cancer drug",Raji,+ + (Slight synergy relative to each agent alone (CI = 0.75-0.9 by Bliss Independence Model))
same,"synergy, additivity or antagonism of the combination of Example 3 with the anti-cancer drug",H460,+ + (Slight synergy relative to each agent alone (CI = 0.75-0.9 by Bliss Independence Model))
same,"synergy, additivity or antagonism of the combination of Example 3 with the anti-cancer drug",BxPC3,+ + (Slight synergy relative to each agent alone (CI = 0.75-0.9 by Bliss Independence Model))
same,"synergy, additivity or antagonism of the combination of Example 3 with the anti-cancer drug",Daudi,+ (Additive relative to each agent alone (CI = 0.9-1 by Bliss Independence Model and <0.9 by Highest Single Agent Model))
same,"synergy, additivity or antagonism of the combination of Example 3 with the anti-cancer drug",BT-474,+ (Additive relative to each agent alone (CI = 0.9-1 by Bliss Independence Model and <0.9 by Highest Single Agent Model))
same,"synergy, additivity or antagonism of the combination of Example 3 with the anti-cancer drug",RPMI8226,+ (Additive relative to each agent alone (CI = 0.9-1 by Bliss Independence Model and <0.9 by Highest Single Agent Model))
same,"synergy, additivity or antagonism of the combination of Example 3 with the anti-cancer drug",H1299,+ (Additive relative to each agent alone (CI = 0.9-1 by Bliss Independence Model and <0.9 by Highest Single Agent Model))
same,"synergy, additivity or antagonism of the combination of Example 3 with the anti-cancer drug",LoVo,+ (Additive relative to each agent alone (CI = 0.9-1 by Bliss Independence Model and <0.9 by Highest Single Agent Model))
same,"synergy, additivity or antagonism of the combination of Example 3 with the anti-cancer drug",Colo205,+ + + (Synergy relative to each agent alone (CI = 0.4-0.74 by Bliss Independence Model))
same,"synergy, additivity or antagonism of the combination of Example 3 with the anti-cancer drug",HT29,+ (Additive relative to each agent alone (CI = 0.9-1 by Bliss Independence Model and <0.9 by Highest Single Agent Model))
same,"synergy, additivity or antagonism of the combination of Example 3 with the anti-cancer drug",A375,+ (Additive relative to each agent alone (CI = 0.9-1 by Bliss Independence Model and <0.9 by Highest Single Agent Model))
same,"synergy, additivity or antagonism of the combination of Example 3 with the anti-cancer drug",SKOV-3,+ (Additive relative to each agent alone (CI = 0.9-1 by Bliss Independence Model and <0.9 by Highest Single Agent Model))
same,"synergy, additivity or antagonism of the combination of Example 3 with the anti-cancer drug",SK-MEL-24,+ (Additive relative to each agent alone (CI = 0.9-1 by Bliss Independence Model and <0.9 by Highest Single Agent Model))
same,"synergy, additivity or antagonism of the combination of Example 3 with the anti-cancer drug",MDA-MB-453,+ (Additive relative to each agent alone (CI = 0.9-1 by Bliss Independence Model and <0.9 by Highest Single Agent Model))
same,"synergy, additivity or antagonism of the combination of Example 3 with the anti-cancer drug",H2122,+ (Additive relative to each agent alone (CI = 0.9-1 by Bliss Independence Model and <0.9 by Highest Single Agent Model))
same,"synergy, additivity or antagonism of the combination of Example 3 with the anti-cancer drug",BT-20,+ + (Slight synergy relative to each agent alone (CI = 0.75-0.9 by Bliss Independence Model))

# Reference: patent US10227344B2, “CK2 inhibitors, compositions and methods thereof” (Polaris Pharmaceuticals, Inc., priority 2016, dated 2019)
